Measurements as given in the NIST ThermoML archive (doi:10.1016/j.jct.2015.12.027).
Numbers after ± are expanded uncertainties.

Experiments:
[1] = xn = mol fraction of the nth substance listed; details: 81.5 kPa, Liquid, Vibrating tube method
[2] = refractive index (Na D-line) (dimensionless); xn = mol fraction of the nth substance listed; details: 81.5 kPa, Liquid, Standard Abbe refractometry

Clc1ccccc1 [chlorobenzene] + ClCCCl
Details	mass density, 293.15 K [kg/m3]	mass density, 303.15 K [kg/m3]	mass density, 313.15 K [kg/m3]	mass density, 323.15 K [kg/m3]	mass density, 333.15 K [kg/m3]	refractive index, 293.15 K	refractive index, 303.15 K	refractive index, 313.15 K	refractive index, 323.15 K	refractive index, 333.15 K
[1], x2 = 0	1106.49 ± 10	1095.71 ± 10	1084.86 ± 10	1073.96 ± 10	1063.01 ± 10	–	–	–	–	–
[1], x2 = 0.1022	1117.76 ± 10	1106.63 ± 10	1095.44 ± 10	1084.22 ± 10	1073.02 ± 10	–	–	–	–	–
[1], x2 = 0.2027	1129.4 ± 10	1117.99 ± 10	1106.5 ± 10	1094.94 ± 10	1083.38 ± 10	–	–	–	–	–
[1], x2 = 0.3126	1142.87 ± 10	1131.14 ± 10	1119.28 ± 10	1107.34 ± 10	1095.38 ± 10	–	–	–	–	–
[1], x2 = 0.4014	1154.41 ± 10	1142.36 ± 10	1130.2 ± 10	1117.94 ± 10	1105.63 ± 10	–	–	–	–	–
[1], x2 = 0.4994	1167.89 ± 10	1155.52 ± 10	1142.99 ± 10	1130.34 ± 10	1117.61 ± 10	–	–	–	–	–
[1], x2 = 0.6002	1182.73 ± 10	1169.98 ± 10	1157.05 ± 10	1143.96 ± 10	1130.77 ± 10	–	–	–	–	–
[1], x2 = 0.7	1198.46 ± 10	1185.33 ± 10	1171.98 ± 10	1158.43 ± 10	1144.78 ± 10	–	–	–	–	–
[1], x2 = 0.7999	1215.33 ± 10	1201.74 ± 10	1187.98 ± 10	1173.96 ± 10	1159.89 ± 10	–	–	–	–	–
[1], x2 = 0.9007	1233.56 ± 10	1219.46 ± 10	1205.18 ± 10	1190.75 ± 10	1176.31 ± 10	–	–	–	–	–
[2], x2 = 0	–	–	–	–	–	1.52455 ± 0.01	1.51902 ± 0.01	1.51346 ± 0.01	1.50781 ± 0.01	1.50223 ± 0.01
[2], x2 = 0.1022	–	–	–	–	–	1.51915 ± 0.01	1.51376 ± 0.01	1.50848 ± 0.01	1.50327 ± 0.01	1.49826 ± 0.01
[2], x2 = 0.2027	–	–	–	–	–	1.51388 ± 0.01	1.50871 ± 0.01	1.50361 ± 0.01	1.49855 ± 0.01	1.49366 ± 0.01
[2], x2 = 0.3126	–	–	–	–	–	1.50734 ± 0.01	1.50235 ± 0.01	1.49739 ± 0.01	1.4924 ± 0.01	1.4875 ± 0.01
[2], x2 = 0.4014	–	–	–	–	–	1.50115 ± 0.01	1.49625 ± 0.01	1.49135 ± 0.01	1.48642 ± 0.01	1.48154 ± 0.01
[2], x2 = 0.4994	–	–	–	–	–	1.49334 ± 0.01	1.48847 ± 0.01	1.48362 ± 0.01	1.47874 ± 0.01	1.47393 ± 0.01
[2], x2 = 0.6002	–	–	–	–	–	1.48436 ± 0.01	1.47949 ± 0.01	1.47465 ± 0.01	1.4698 ± 0.01	1.46504 ± 0.01
[2], x2 = 0.7	–	–	–	–	–	1.47478 ± 0.01	1.46991 ± 0.01	1.46504 ± 0.01	1.46017 ± 0.01	1.45535 ± 0.01
[2], x2 = 0.7999	–	–	–	–	–	1.46481 ± 0.01	1.45993 ± 0.01	1.455 ± 0.01	1.45001 ± 0.01	1.44502 ± 0.01
[2], x2 = 0.9007	–	–	–	–	–	1.45465 ± 0.01	1.44969 ± 0.01	1.44464 ± 0.01	1.43948 ± 0.01	1.43427 ± 0.01

O=[N+]([O-])c1ccccc1 [nitrobenzene] + ClCCCl
Details	mass density, 293.15 K [kg/m3]	mass density, 303.15 K [kg/m3]	mass density, 313.15 K [kg/m3]	mass density, 323.15 K [kg/m3]	mass density, 333.15 K [kg/m3]	refractive index, 293.15 K	refractive index, 303.15 K	refractive index, 313.15 K	refractive index, 323.15 K	refractive index, 333.15 K
[1], x2 = 0	1203.05 ± 10	1193.15 ± 10	1183.21 ± 10	1173.27 ± 10	1163.32 ± 10	–	–	–	–	–
[1], x2 = 0.1008	1206.99 ± 10	1196.83 ± 10	1186.61 ± 10	1176.36 ± 10	1166.07 ± 10	–	–	–	–	–
[1], x2 = 0.1993	1211.04 ± 10	1200.58 ± 10	1190.03 ± 10	1179.45 ± 10	1168.82 ± 10	–	–	–	–	–
[1], x2 = 0.3	1215.35 ± 10	1204.56 ± 10	1193.66 ± 10	1182.68 ± 10	1171.66 ± 10	–	–	–	–	–
[1], x2 = 0.3997	1219.84 ± 10	1208.67 ± 10	1197.36 ± 10	1185.98 ± 10	1174.52 ± 10	–	–	–	–	–
[1], x2 = 0.4991	1224.55 ± 10	1212.96 ± 10	1201.23 ± 10	1189.39 ± 10	1177.48 ± 10	–	–	–	–	–
[1], x2 = 0.6004	1229.62 ± 10	1217.53 ± 10	1205.32 ± 10	1193 ± 10	1180.62 ± 10	–	–	–	–	–
[1], x2 = 0.7006	1234.94 ± 10	1222.31 ± 10	1209.57 ± 10	1196.72 ± 10	1183.82 ± 10	–	–	–	–	–
[1], x2 = 0.801	1240.51 ± 10	1227.39 ± 10	1214.06 ± 10	1200.58 ± 10	1187.03 ± 10	–	–	–	–	–
[1], x2 = 0.8997	1246.65 ± 10	1232.66 ± 10	1218.68 ± 10	1204.5 ± 10	1190.22 ± 10	–	–	–	–	–
[2], x2 = 0	–	–	–	–	–	1.55241 ± 0.01	1.54763 ± 0.01	1.54288 ± 0.01	1.53795 ± 0.01	1.53289 ± 0.01
[2], x2 = 0.1008	–	–	–	–	–	1.54317 ± 0.01	1.53879 ± 0.01	1.53437 ± 0.01	1.52975 ± 0.01	1.52496 ± 0.01
[2], x2 = 0.1993	–	–	–	–	–	1.5343 ± 0.01	1.53004 ± 0.01	1.52579 ± 0.01	1.5214 ± 0.01	1.5169 ± 0.01
[2], x2 = 0.3	–	–	–	–	–	1.5252 ± 0.01	1.52093 ± 0.01	1.51672 ± 0.01	1.51243 ± 0.01	1.5081 ± 0.01
[2], x2 = 0.3997	–	–	–	–	–	1.51592 ± 0.01	1.51157 ± 0.01	1.5073 ± 0.01	1.50299 ± 0.01	1.49867 ± 0.01
[2], x2 = 0.4991	–	–	–	–	–	1.5061 ± 0.01	1.50165 ± 0.01	1.49727 ± 0.01	1.49286 ± 0.01	1.48847 ± 0.01
[2], x2 = 0.6004	–	–	–	–	–	1.49525 ± 0.01	1.49071 ± 0.01	1.48623 ± 0.01	1.48171 ± 0.01	1.4772 ± 0.01
[2], x2 = 0.7006	–	–	–	–	–	1.48353 ± 0.01	1.47893 ± 0.01	1.47436 ± 0.01	1.46977 ± 0.01	1.46518 ± 0.01
[2], x2 = 0.801	–	–	–	–	–	1.47088 ± 0.01	1.46619 ± 0.01	1.46154 ± 0.01	1.45687 ± 0.01	1.45224 ± 0.01
[2], x2 = 0.8997	–	–	–	–	–	1.45787 ± 0.01	1.453 ± 0.01	1.44817 ± 0.01	1.44337 ± 0.01	1.43861 ± 0.01
